Read-outs that look alike come from different tables or passages of the source.
Key:
[1] = In vivo biodistribution in female Kunming mice; conditions: for Biodistribution: Large Intestine / Biodistribution: Small Intestine / Biodistribution: Stomach: unit % ID
Description: Female Kunming mice (20-22 g, n=3) were fasted for 12 h before the experiment, and the purified radioactive ^99mTc complex 130 was dissolved in a normal saline (containing 10% ethanol) solution (about 100 μCi/mL). Female Kunming mice were injected with 100 μL of the above solution through the tail vein, and the mice were killed by cervical dislocation at 5, 15, 30, 60, and 120 min post-injection, respectively. Blood, brain, heart, liver, spleen, lung, kidney, muscle, bone, large intestine, small intestine, stomach and tail were collected, weighed and counted, and the count distribution of each tissue and organ was calculated (unit: % ID/g, the unit of large intestine, small intestine and stomach was % ID), and the data were the mean±standard deviation of three mice in each time phase. At the same time, 100 μL of the above solution was diluted to 10 mL, which was used as the % ID without deducting the tail count.
The corresponding radioactive ^99mTc complex 158 as the typical compounds of the general formula V in this application was selected to conduct an in vivo biodistribution study in female Kunming mice. The specific experimental method was shown in the experimental method of “In vivo biodistribution study of radioactive ^99mTc complex 130 in female Kunming mice” in Example 7 above.

[2] = female SD rats, cited from earlier work
[3] = 30 min after injection, reference 3
[4] = 30 min post-injection, reference 2
[5] = 60 min after injection, reference 2
[6] = 60 min after injection, reference 3
[7] = 60 min post-injection, reference 1
[8] = 60 min post-injection, reference 2
[9] = 120 min after injection, reference 3
[10] = 120 min post-injection, reference 1

## COC(C)(C)C[N+]#[C][99Tc-5]([C]#[N+]CC(C)(C)OC)([C]#[N+]CC(C)(C)OC)([C]#[N+]CC(C)(C)OC)([C]#[N+]CC(C)(C)OC)[C]#[N+]CC(C)(C)OCCCS(=O)(=O)CCCCCS(=O)(=O)CCCSCCCCC(=O)O [^99mTc complex 158]
[1]
  heart-to-blood ratios (assessment): moderate level
  heart-to-lungs ratios (assessment): moderate level
  myocardial clearance: fast
[1]; 5 min post-injection
  Biodistribution: Blood: 13.21 ± 2.84 ID %/g
  Biodistribution: Bone: 2.31 ± 0.36 ID %/g
  Biodistribution: Brain: 0.39 ± 0.14 ID %/g
  Biodistribution: Heart: 4.19 ± 0.10 ID %/g
  Biodistribution: Kidney: 7.80 ± 1.46 ID %/g
  Biodistribution: Liver: 37.80 ± 6.80 ID %/g
  Biodistribution: Lungs: 5.91 ± 0.89 ID %/g
  Biodistribution: Muscle: 1.82 ± 0.16 ID %/g
  Biodistribution: Spleen: 1.55 ± 0.01 ID %/g
  Heart-to-Blood ratio: 0.32
  Heart-to-Liver ratio: 0.11
  Heart-to-Lungs ratio: 0.71
  Biodistribution: Large Intestine: 1.04 ± 0.37 % ID
  Biodistribution: Small Intestine: 5.39 ± 0.84 % ID
  Biodistribution: Stomach: 0.54 ± 0.19 % ID
[1]; 15 min post-injection
  Biodistribution: Blood: 5.47 ± 0.09 ID %/g
  Biodistribution: Bone: 1.04 ± 0.38 ID %/g
  Biodistribution: Brain: 0.14 ± 0.05 ID %/g
  Biodistribution: Heart: 1.63 ± 0.02 ID %/g
  Biodistribution: Kidney: 4.59 ± 0.68 ID %/g
  Biodistribution: Liver: 33.35 ± 0.37 ID %/g
  Biodistribution: Lungs: 2.69 ± 0.70 ID %/g
  Biodistribution: Muscle: 1.10 ± 0.22 ID %/g
  Biodistribution: Spleen: 0.86 ± 0.28 ID %/g
  Heart-to-Blood ratio: 0.30
  Heart-to-Liver ratio: 0.05
  Heart-to-Lungs ratio: 0.61
  Biodistribution: Large Intestine: 0.67 ± 0.15 % ID
  Biodistribution: Small Intestine: 16.67 ± 2.60 % ID
  Biodistribution: Stomach: 0.46 ± 0.13 % ID
[1]; 30 min post-injection
  Biodistribution: Blood: 1.20 ± 0.1 ID %/g
  Biodistribution: Bone: 0.37 ± 0.1 ID %/g
  Biodistribution: Brain: 0.1 ± 0.04 ID %/g
  Biodistribution: Heart: 0.91 ± 0.11 ID %/g
  Biodistribution: Kidney: 2.22 ± 0.2 ID %/g
  Biodistribution: Liver: 22.5 ± 3.2 ID %/g
  Biodistribution: Lungs: 0.9 ± 0.04 ID %/g
  Biodistribution: Muscle: 0.46 ± 0.1 ID %/g
  Biodistribution: Spleen: 0.55 ± 0.1 ID %/g
  Heart-to-Blood ratio: 0.76
  Heart-to-Liver ratio: 0.04
  Heart-to-Lungs ratio: 1.00
  Biodistribution: Large Intestine: 1.25 ± 0.1 % ID
  Biodistribution: Small Intestine: 20.9 ± 4.6 % ID
  Biodistribution: Stomach: 0.25 ± 0.1 % ID
[1]; 60 min post-injection
  Biodistribution: Blood: 0.42 ± 0.03 ID %/g
  Biodistribution: Bone: 0.24 ± 0.04 ID %/g
  Biodistribution: Brain: 0.06 ± 0.01 ID %/g
  Biodistribution: Heart: 0.67 ± 0.09 ID %/g
  Biodistribution: Kidney: 1.20 ± 0.10 ID %/g
  Biodistribution: Liver: 22.8 ± 1.20 ID %/g
  Biodistribution: Lungs: 0.50 ± 0.02 ID %/g
  Biodistribution: Muscle: 0.31 ± 0.06 ID %/g
  Biodistribution: Spleen: 0.24 ± 0.06 ID %/g
  Heart-to-Blood ratio: 1.60
  Heart-to-Liver ratio: 0.03
  Heart-to-Lungs ratio: 1.34
  Biodistribution: Large Intestine: 1.31 ± 0.27 % ID
  Biodistribution: Small Intestine: 34.24 ± 3.12 % ID
  Biodistribution: Stomach: 0.38 ± 0.05 % ID
[1]; 120 min post-injection
  Biodistribution: Blood: 0.26 ± 0.01 ID %/g
  Biodistribution: Bone: 0.15 ± 0.05 ID %/g
  Biodistribution: Brain: 0.03 ± 0.02 ID %/g
  Biodistribution: Heart: 0.52 ± 0.01 ID %/g
  Biodistribution: Kidney: 0.80 ± 0.07 ID %/g
  Biodistribution: Liver: 13.81 ± 0.59 ID %/g
  Biodistribution: Lungs: 0.32 ± 0.06 ID %/g
  Biodistribution: Muscle: 0.21 ± 0.03 ID %/g
  Biodistribution: Spleen: 0.15 ± 0.07 ID %/g
  Heart-to-Blood ratio: 2.00
  Heart-to-Liver ratio: 0.04
  Heart-to-Lungs ratio: 1.63
  Biodistribution: Large Intestine: 1.02 ± 0.22 % ID
  Biodistribution: Small Intestine: 19.83 ± 1.14 % ID
  Biodistribution: Stomach: 0.47 ± 0.10 % ID
[1]; after tail vein injection
  absolute myocardial uptake (assessment): low

## [99Tc].[C-]#[N+]CC(C)(C)OC.[C-]#[N+]CC(C)(C)OC.[C-]#[N+]CC(C)(C)OC.[C-]#[N+]CC(C)(C)OC.[C-]#[N+]CC(C)(C)OC.[C-]#[N+]CC(C)(C)OC [^99mTc-MIBI]
[2]; 10 min after injection, reference 2
  absolute myocardial uptake value: 3.26±0.18 % ID/g
[2]; 10 min post-injection, reference 1
  absolute myocardial uptake value: 3.70 % Dose/g
[2]; 20 min after injection, reference 2
  absolute myocardial uptake value: 3.07 0.21 % ID/g
[2]; 30 min after injection, reference 2
  absolute myocardial uptake value: 3.13±0.12 % ID/g
[2]; [3]
  Heart-to-Blood ratio: 114.6±34.70
  absolute myocardial uptake value: 3.16±0.56 % ID/g
[2]; 30 min post-injection, reference 1
  absolute myocardial uptake value: 3.16 % Dose/g
[2]; [4]
  Heart-to-Blood ratio: 104.30
  Heart-to-Lungs ratio: 4.66±0.24
[2]; 30 min post-injection, reference 3
  Heart-to-Lungs ratio: 3.57±0.72
[2]; [5]
  Heart-to-Liver ratio: 2.65±0.22
  absolute myocardial uptake value: 3.29±0.12 % ID/g
[2]; [6]
  Heart-to-Blood ratio: 137.80±35.00
  Heart-to-Liver ratio: 4.25±0.84
  absolute myocardial uptake value: 3.14±0.42 % ID/g
[2]; [7]
  Heart-to-Liver ratio: 2.04±0.17
  Heart-to-Lungs ratio: 6.77±0.55
  absolute myocardial uptake value: 3.04 % Dose/g
[2]; [8]
  Heart-to-Blood ratio: 164.50
  Heart-to-Lungs ratio: 7.32±0.28
[2]; 60 min post-injection, reference 3
  Heart-to-Lungs ratio: 6.41±1.25
[2]; [9]
  Heart-to-Blood ratio: 209.00±12.40
  Heart-to-Liver ratio: 4.52±1.57
  absolute myocardial uptake value: 2.83±0.25 % ID/g
[2]; [10]
  Heart-to-Liver ratio: 2.96±0.34
  Heart-to-Lungs ratio: 6.48±0.51
[2]; 120 min post-injection, reference 3
  Heart-to-Lungs ratio: 7.97±1.89

From patent publication US20250114486A1, “MARKED FATTY ACID DERIVATIVE, PRECURSOR COMPOUND THEREOF, AND USE THEREOF IN CONTRAST AGENT” (BEIJING NORMAL UNIVERSITY, priority 2022, published 2025)
